# Measured values taken from patent US20190374533A1, “COMPOUNDS AND METHODS FOR INHIBITING NHE-MEDIATED ANTIPORT IN THE TREATMENT OF DISORDERS ASSOCIATED WITH FLUID RETENTION OR SALT OVERLOAD AND GASTROINTESTINAL TRACT DISORDERS” (Ardelyx, Inc., priority 2008, published 2019).
# Structures can show the parent of a compound that is named as a salt.
# System: human duodenum monolayer culture
# Assay: Increased trans-epithelial resistance (TEER) in human organoid monolayer cell cultures
# Type: cell-based
# Settings: 1 μM apical, baseline corrected
# Procedure: Transwells were 0.4 μm pore polyester membrane 24-well Transwell inserts (Corning). Cultures were incubated at 37° C. in 5% CO2.
# Human duodenum organoids were cultured in WENRNAS (Wnt, EGF, noggin, R-spondin1. Nicotinamide, A83-01, SB202190) and typically grown for 7-12 days before being used to plate monolayer cultures. On day 0, organoid cultures embedded in Matrigel were treated with TrypLE Express to break organoids into small pieces and/or single cells. The cells were resuspended to 0.5×10^6 cells/mL in SBM containing WENRAY (Wnt. EGF, noggin, R-spondin1, A83-01, Y-27632). Following this step, 200 μL of cell suspension was plated into the apical side of a 24-well Transwell (100,000 cells/well) and 600 μL of SBM with WENRAY was added to the basolateral side. Duodenum cells were differentiated with ENA (EGF, noggin, A83-01) on day 3. […]
# Each human duodenum monolayer culture well was washed twice with fresh SBM on the apical side on day 6 or day 7 before dosing. […] Transepithelial electrical resistance (TEER) was used as a quantitative technique to measure of tight junction permeability. TEER values were recorded (MERS00002. Millipore) before dosing and 30 mins and 1 hr after dosing for all wells. […] Baseline corrected TEER for each example compound was compared to the average of the DMSO wells and expressed as a percent TEER of vehicle control.
smiles,measurement,setting,value
"CN1Cc2c(Cl)cc(Cl)cc2[C@H](c2cccc(S(=O)(=O)NCCOCCOCCNC(=O)NCCCCNC(=O)NCCOCCOCCNS(=O)(=O)c3cccc([C@@H]4CN(C)Cc5c(Cl)cc(Cl)cc54)c3)c2)C1 (single isomer, unassigned) [Example 202, (S or R)—N,N′-(10,17-dioxo-3,6,21,24-tetraoxa-9,11,16,18-tetraazahexacosane-1,26-diyl)bis(3-((S)-6,8-dichloro-2-methyl-1,2,3,4-tetrahydroisoquinolin-4-yl)benzenesulfonamide) bis-hydrochloride salt]",TEER at 30 minutes (% of Vehicle),30 mins after dosing,B (100-130%)
same,TEER at 60 minues (% of Vehicle),1 hr after dosing,B (100-130%)
